Results: US5641480A, “Hair care compositions comprising heteroatom containing alkyl aldonamide compounds” (Lever Brothers Company, Division of Conopco, Inc., priority 1994, dated 1997)
Read-outs that look alike come from different tables or passages of the source. One block for each compound: values may come before it.

Experiments:
[1] = Clarity of prototype shampoo compositions with sodium lauryl sulfate (Example 87); type: physicochemical; settings: room temperature, 6 months
Procedure: (§1) The prototype shampoo composition is as follows:
(§2) The above formulations were prepared by admixing the above ingredients in listed order and heating the mixture to about 80° C. with rapid stirring. The mixture was then cooled to about 40° C., placed in a clear jar and stored at room temperature for 6 months.

[2] = Ross-Miles foam height assay of aldonamides (Examples 81-84); type: physicochemical; settings: 0.1% aldonamide, 40° C. (if not soluble, about 5°-10° C. above Krafft point), 0 ppm hardness; for Foam Height Final: after 10 minutes
Procedure: In the Ross-Miles method, 200 mL of a suffactant solution contained in a pipette of specified dimensions with a 2.9 -mm-i.d. orifice is allowed to fall 90 cm onto 50 mL of the same solution contained in a cylindrical vessel maintained at a given temperature by means of a water jacket. The height of the foam produced in the cylindrical vessel is read immediately after all the solution has run out of the pipette and then again after a given amount of time.
Using this method, the foam production (initial foam height in mm) and foam stability (final foam height after 10 minutes in mm) were measured at 0.1% aldonamtde concentration, 40° C. and 0 ppm (parts per million) hardness.

[3] = Viscosity of prototype shampoo compositions with sodium lauryl sulfate, Brookfield Digital Viscometer (Example 88); type: physicochemical; settings: vs no thickener
Procedure: as §1, §2
It is well known that the viscosity of a liquid composition comprising of anionic surfactant can be modified by the addition of inorganic salts, such as sodium chloride. However, in the absence of an organic modifier, high levels of salt may be necessary to achieve the required viscosity which may lead to problems of storage at cold temperature or even salting out certain ingredients. In practice, however, the viscosity of a liquid composition is modified by the simultaneous addition of thickener and small amounts of inorganic salt (viscosity cobuilder). The combined effect is greater than either one alone. The viscosity of the above prototype shampoo composition comprising various amounts of heteroatom containing alkyl aldonamide compound is as follows: […]

[4] = Krafft point determination; type: physicochemical; settings: 0.1% in water
Procedure: The temperature at and above which surfactants begin to form micelles instead of precipitates is referred to as the Krafft point (Tk) and at this temperature the solubility of a surfactant becomes equal to its CMC (numerical value at which micelles are formed).
The Krafft point was measured by preparing 650 ml of a 0.1% or 1.0% dispersion of aldonamide in water by weight. If the surfactant was soluble at room temperature, the solution was slowly cooled to 0° C. […] (less than zero). If it precipitated out of solution, the temperature at which precipitation occurs was taken as the Krafft point.
If the surfactant was insoluble at room temperature, the dispersion was slowly heated until the solution became homogeneous. It was then slowly cooled until precipitation occurred. The temperature at which the surfactant precipitates out of solution upon cooling was taken as the Krafft point.

[5] = Effectiveness in reducing surface tension (Example 93); type: physicochemical; settings: 60 °C, estimated by extrapolation
Source text: As mentioned before, surface tension reduction depends on the replacement of water molecules at the interface by surfactant molecules, therefore the effectiveness of a surfactant in reducing interfacial surface tension should reflect the saturated concentration of surfactant at the interface relative to that in bulk liquid phase. During this process the surface tension of water steadily decreases as bulk phase surfactant concentration increases. This will continue until the concentration reaches the critical micelle concentration (CMC), above which the surface tension remains nearly unchanged and the interface is saturated with surfactant. The surface tension at the CMC is therefore very close to the minimum interfacial tension or maximum surface pressure that the system can achieve. The surface pressure at this point, IIcmc, is a suitable measure of the effectiveness of a surfactant in reducing surface tension and is given as:
.PI.cmc 20+2.3nRT(Γmax) log [CMC/C20 ]
n=1 which represents the number of ions whose surface concentration changes with the change in liquid phase suffactant concentration.
CMC/C20 =is the ratio of the critical micelle concentration to the bulk phase surfactant concentration necessary to reduce the surface tension of water by 20 dyn/cm.

[6] = Rosen, cited from earlier work
[7] = Rosen, cited from earlier work; remark: listed apart in the source
[8] = Rosen, cited from earlier work; remark: listed apart in the source
[9] = 25 °C, Rosen; cited from earlier work
[10] = Area per molecule at the water/air interface (Example 95); type: physicochemical; settings: 60 °C, estimated by extrapolation
Source text: The area per molecule of a surfactant at the water/air interface provides information on the degree of packing and the orientation of the adsorbed surfactant molecule. While not wishing to be bound by theory, it is believed that surfactants that have small area per molecule values tend to pack more closely at the interface than those with large area per molecule values. From the surface excess concentration at surface saturation (Γmax), the area per molecule (am) of C8 /C10 oxypropyl D-gluconamide was determined and is given by:
am =1×10^16 /Nav Γmax

[11] = Effectiveness of adsorption, surface excess concentration at surface saturation (Example 94); type: physicochemical; settings: 60 °C, estimated by extrapolation
Source text: The surface excess concentration at surface saturation (Γmax) is defined as a measure of the effectiveness of surfactant adsorption at the water/air interface and represents the maximum value to which adsorption can be obtained. Effectiveness of adsorption is related to the interfacial area occupied by the surfactant molecule. The smaller the effective cross-sectional area of a surfactant at the interface, the greater its effectiveness of adsorption. The effectiveness of adsorption is an important factor in determining surfactant properties such as detergency, foaming, wetting or emulsification. While not wishing to be bound by theory, it is believed that surfactants that absorb effectively at the interface tend have tightly packed coherent interfacial films and often provide better surfactant benefits than those with loosely packed noncoherent films. The effectiveness of adsorption of C8 /C10 oxypropyl D-gluconamide was determined using the Gibbs equation given as: […]
ergs/cm^2 (which is equivalent to the slope of a plot of γ

[12] = Viscosity of prototype shampoo compositions of Example 86, Brookfield Digital Viscometer; type: physicochemical; settings: 4.0% thickener, Example 86 shampoo, 22° C.
Source text: The results are as follows:

[13] = Foam stability and enhancement of prototype shampoo (sodium/ammonium lauryl sulfate), Ross-Miles Foam Height assay (Example 86); type: physicochemical; settings: 45° C., 4.0% additive in prototype shampoo
Procedure: The results were compared to identical compositions comprising petrochemitcally derived foam stabilizing agents, in particular, alkanolamides and alcohol ethoxylates. The prototype shampoo composition is as follows:
The compositions were prepared by admixing the ingredients in listed order with rapid stirring at 45°-50° C. Foam stability and enhancement were measured at 0.1% based on sodium and ammonium lauryl sulfate (0.16% total solids) at 45° C. and 0 or 120 parts per million (ppm) hardness calcium:magnesium ion 2:1.

[14] = Foam stability and enhancement of sodium dodecyl benzene sulfonate, Ross-Miles method (Example 85); type: physicochemical; settings: 30 minutes, 10:90 mole %, 35° C., pH 10
Procedure: The triolein/calcium stearate mixture was dispersed to the above solutions using a high speed shear mixer at 60° C. and then cooled to 35° C. The triolein/calcium stearate mixture represents an extreme type of antifoam behavior found in sebum soil.
The foaming behavior of the above surfactants was determined by the Ross-Miles Foam Height Assay (Ross, J. and Miles, G. D. Am Soc. for Testing Material Method Dl173-63 Philadelphia, Pa. (1953); Oil & Soap (1958) 62:1260) and the cylinder shaking method.
In the Ross-Miles method, 200 mL of a surfactant solution contained in a pipette of specified dimensions with a 2.9-mm-i.d. orifice is allowed to fall 90 cm onto 50 mL of the same solution contained in a cylindrical vessel maintained at a given temperature by means of a water jacket. The height of the foam produced in the cylindrical vessel is read after 30 minutes has elapsed.
The foam stability and enhancement of the heteroatom containing alkyl aldonamides was further determined using a 10:90 mole percent solution of C8 /C10 oxypropyl D-gluconamide (C8 /C10 OPG): sodium dodecyl benzene sulfonate (C12 LAS) and compared to identical solutions of dodecyl D-gluconamide (C12 Gluc): sodium dodecyl benzene sulfonate in the presence and absence of the triolein/calcium stearate antifoam.

[15] = 3.0% thickener in […] sodium lauryl sulfate shampoo
[16] = 5.0% thickener in […] sodium lauryl sulfate shampoo

Compound: cocoamide monoethanolamine [Cocoamide MEA]
- Viscosity [12]: 1720 Centipoise
- Final FH after 60 Min. ([13]; 0 ppm hardness): 70 mm
- Initial FH ([13]; 0 ppm hardness): 178 mm
- Final FH after 60 Min. ([13]; 120 ppm hardness): 53 mm
- Initial FH ([13]; 120 ppm hardness): 148 mm

Compound: CCCCCCCCCCCCOCCOCCOCCOCCO [Dodecyltetra(oxyethylene) Ether]
- .PI.cmc (surface pressure) [5]: 40.7 dyn/cm
- .PI.cmc (surface pressure) ([6]; 25 °C): 43.4 dyn/cm
- CMC/C20 ([6]; 25 °C): 13.7
- .PI.cmc (surface pressure) ([6]; 40 °C): 42.0 dyn/cm
- CMC/C20 ([6]; 40 °C): 11.8
- Γmax (surface excess concentration at surface saturation) ([7]; 25 °C): 3.63 × 10^-10 mole/cm^2
- Γmax (surface excess concentration at surface saturation) ([7]; 40 °C): 3.41 × 10^-10 mole/cm^2
- am (area per molecule) ([8]; 25 °C): 45.7 Å^2
- am (area per molecule) ([8]; 40 °C): 48.7 Å^2
- pC20 [9]: 5.34
- am (area per molecule) [10]: 53.3 Å^2
- Γmax (surface excess concentration at surface saturation) [11]: 3.01 × 10^-10 mole/cm^2

Compound: CCCCCCCCCNC(=O)[C@H](O)[C@@H](O)[C@H](O)[C@H](O)CO [C9 D-Gluconamide]
- Appearance (Time) ([1]; 4.0% thickener in […] sodium lauryl sulfate shampoo): Precipitate (2 weeks)
- Appearance (Time) [1, 16]: Precipitate (2 weeks)
- Foam Height Initial [2]: 0 mm
- Foam Height Final [2]: 0 mm

Compound: CCCCCCCCCCCC(=O)N(CCO)CCO [Lauramide DEA, lauramide diethanolamine]
- Viscosity [12]: 2376 Centipoise
- Final FH after 60 Min. ([13]; 0 ppm hardness): 151 mm
- Initial FH ([13]; 0 ppm hardness): 190 mm
- Final FH after 60 Min. ([13]; 120 ppm hardness): 126 mm
- Initial FH ([13]; 120 ppm hardness): 159 mm

Compound: sodium dodecyl benzene sulfonate [C12 LAS]
- Foam Height, No Antifoam [14]: 131 mm
- Foam Height, With Antifoam ([14]; triolein/calcium stearate 1 g/L): 61 mm

Compound: Cocoaminopropyl D-Gluconamide
- Appearance (Time) [1, 15]: Clear
- Appearance (Time) [1, 16]: Clear
- Foam Height Initial [2]: 186 mm
- Foam Height Final [2]: 182 mm

The next lines start with results.

- Appearance (Time) [1, 15]: Precipitate (1 day)
- Appearance (Time) [1, 16]: Precipitate (2 hours)
Compound: Coco D-Gluconamide

- Foam Height Initial [2]: 165 mm
- Foam Height Final [2]: 154 mm
- Increase (viscosity) ([3]; 3.0% thickener): 23 ×
- Increase (viscosity) ([3]; 5.0% thickener): 97 ×
- Krafft Point (0.1%) [4]: < 0 °C
Compound: CCCCCCCCCCCCOCCCNC(=O)[C@H](O)[C@@H](O)[C@H](O[C@@H]1O[C@H](CO)[C@H](O)[C@H](O)[C@H]1O)[C@H](O)CO [C12 Oxypropyl D-Lactobionamide, Dodecyloxypropyl D-Lactobionamide]

- Appearance (Time) [1, 15]: Clear
- Appearance (Time) [1, 16]: Clear
- Foam Height Initial [2]: 168 mm
- Foam Height Final [2]: 158 mm
- Krafft Point (0.1%) [4]: < 0 °C
Compound: Octyl/Decyloxypropyl D-Lactobionamide [C8 /C10 Oxypropyl D-Lactobionamide]

- .PI.cmc (surface pressure) [5]: 41.4 dyn/cm
- am (area per molecule) [10]: 45.4 Å^2
- Γmax (surface excess concentration at surface saturation) [11]: 3.83 × 10^-10 mole/cm^2
Compound: CCCCCCCCCCCCOCCOCCOCCO [Dodecyltri(oxyethylene) Ether]
- .PI.cmc (surface pressure) ([6]; 25 °C): 44.1 dyn/cm
- CMC/C20 ([6]; 25 °C): 11.4
- .PI.cmc (surface pressure) ([6]; 40 °C): 43.1 dyn/cm
- Γmax (surface excess concentration at surface saturation) ([7]; 25 °C): 3.98 × 10^-10 mole/cm^2
- Γmax (surface excess concentration at surface saturation) ([7]; 40 °C): 3.90 × 10^-10 mole/cm^2
- am (area per molecule) ([8]; 25 °C): 41.7 Å^2
- am (area per molecule) ([8]; 40 °C): 42.5 Å^2
- pC20 [9]: 5.34

- Appearance (Time) [1, 15]: Clear
- Appearance (Time) [1, 16]: Precipitate (5 months)
- Foam Height Initial [2]: 200 mm
- Foam Height Final [2]: 110 mm
- Increase (viscosity) ([3]; 3.0% thickener): 120 ×
- Increase (viscosity) ([3]; 5.0% thickener): 1373 ×
Compound: CCCCCCCCCCCCOCCCNC(=O)[C@H](O)[C@@H](O)[C@H](O)[C@H](O)CO [C12 Oxypropyl D-Gluconamide]

- Appearance (Time) [1, 15]: Precipitate (1 week)
- Appearance (Time) [1, 16]: Precipitate (5 days)
- Foam Height Initial [2]: 199 mm
- Foam Height Final [2]: 6 mm
Compound: CCCCCCCCCCNC(=O)[C@H](O)[C@@H](O)[C@H](O)[C@H](O)CO [C10 D-Gluconamide]

- .PI.cmc (surface pressure) [5]: 40.7 dyn/cm
- am (area per molecule) [10]: 52.3 Å^2
- Γmax (surface excess concentration at surface saturation) [11]: 3.16 × 10^-10 mole/cm^2
Compound: CCCCCCCCCCCCOCCOCCOCCOCCOCCO [Dodecylpenta(oxyethylene) Ether]
- .PI.cmc (surface pressure) ([6]; 25 °C): 41.5 dyn/cm
- CMC/C20 ([6]; 25 °C): 15.0
- .PI.cmc (surface pressure) ([6]; 40 °C): 41.2 dyn/cm
- Γmax (surface excess concentration at surface saturation) ([7]; 25 °C): 3.31 × 10^-10 mole/cm^2
- Γmax (surface excess concentration at surface saturation) ([7]; 40 °C): 3.28 × 10^-10 mole/cm^2
- am (area per molecule) ([8]; 25 °C): 50.1 Å^2
- am (area per molecule) ([8]; 40 °C): 50.6 Å^2
- pC20 [9]: 5.37
